Data published in paper PMC11982470, “The 2-methylcitrate cycle and the glyoxylate shunt in Pseudomonas aeruginosa are linked through enzymatic redundancy” (The Journal of Biological Chemistry, 2025).

Assays:
AceAPa (ICLPa) [1] = molecular target: T1, AceAPa (ICLPa) (Pseudomonas aeruginosa, UniProt Q9I0K4); experiment: LDH-coupled assay, NADH oxidation at […] nm; type: biochemical; details: 50 mM Hepes pH 7.5, 2.5 mM MgCl2, 5 mM DTT, 37 °C; racemic threo substrate
T1 construct: gene PA2634; full-length, N-terminal His6 tag TEV-cleaved (pET-19m), expressed in E. coli
T1 sequence (Q9I0K4 1-531): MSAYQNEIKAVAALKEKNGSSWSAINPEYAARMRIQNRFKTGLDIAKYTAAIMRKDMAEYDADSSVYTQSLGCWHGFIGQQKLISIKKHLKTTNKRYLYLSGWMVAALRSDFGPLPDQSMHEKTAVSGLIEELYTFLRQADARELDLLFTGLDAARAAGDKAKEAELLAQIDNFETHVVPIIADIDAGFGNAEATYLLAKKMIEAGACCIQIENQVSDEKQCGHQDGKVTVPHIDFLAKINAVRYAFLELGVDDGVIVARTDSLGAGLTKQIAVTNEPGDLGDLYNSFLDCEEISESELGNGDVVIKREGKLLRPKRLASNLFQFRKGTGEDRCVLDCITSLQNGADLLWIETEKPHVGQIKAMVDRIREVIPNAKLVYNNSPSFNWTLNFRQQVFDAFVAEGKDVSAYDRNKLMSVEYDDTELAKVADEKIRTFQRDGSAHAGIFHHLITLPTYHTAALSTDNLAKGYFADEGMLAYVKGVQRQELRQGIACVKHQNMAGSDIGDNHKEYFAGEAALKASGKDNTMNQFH

PrpBPa = molecular target: T2, PrpBPa (Pseudomonas aeruginosa, UniProt Q9I5E2); experiment: LDH-coupled assay, inhibitor screen, relative activity; type: biochemical; details: 1 mM compound, 5 min preincubation; pH 7.5, Mg2+, DTT, 37 °C
T2 construct: gene prpB; full-length, N-terminal His6 tag TEV-cleaved (pET-19m), expressed in E. coli; homotetramer (dimer of dimers)
T2 sequence (Q9I5E2 1-298): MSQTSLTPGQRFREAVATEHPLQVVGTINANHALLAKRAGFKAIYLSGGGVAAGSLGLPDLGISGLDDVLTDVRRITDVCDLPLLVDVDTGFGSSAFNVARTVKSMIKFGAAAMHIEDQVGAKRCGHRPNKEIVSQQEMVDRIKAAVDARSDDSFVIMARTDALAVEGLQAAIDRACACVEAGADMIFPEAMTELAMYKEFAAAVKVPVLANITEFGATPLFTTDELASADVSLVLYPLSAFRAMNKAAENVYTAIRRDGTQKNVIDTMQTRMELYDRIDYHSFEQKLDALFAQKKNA

AceAPa (ICLPa) [2] = molecular target: T1, AceAPa (ICLPa); experiment: phenylhydrazine-based isocitrate lyase assay, […] nm; type: biochemical; details: 4 mM DL-isocitric acid, 25 mM imidazole pH 7.0, 10 mM EDTA, 5 mM MgCl2
[3] = molecular target: the molecule itself; experiment: crystal structure; apo-PrpBPa (1.8 Å) and PrpBPa with Mg2+/pyruvate (1.76 Å, crystal soak); tetramer in the asymmetric unit; crystals from Tris-HCl pH 8.5, PEG 4000, LiSO4, 5 mM DTT, 19 °C
purified protein = substrate: CC(O)(C(=O)O)C(CC(=O)O)C(=O)O; experiment: purified protein; type: biochemical, Pseudomonas aeruginosa; details: 50 mM Hepes pH 7.5, 2.5 mM MgCl2, 5 mM DTT, 37 °C, DTT-pretreated enzyme, racemic threo substrate

Molecule	relative activity at 1 mM (PrpBPa)	also measured
CC(O)(C(=O)O)C(CC(=O)O)C(=O)O (racemic) [threo-2-methylisocitrate]	–	LDH-coupled assay, NADH oxidation at 340 nm (AceAPa (ICLPa) [1]): purified AceAPa demonstrated robust 2-MICL activity in vitro
O=C(O)/C=C(/CC(=O)O)C(=O)O [cis-aconitic acid]	α-ketoglutarate, cis-aconitic acid, and D-glyceraldehyde 3-phosphate were all potent inhibitors of PrpBPa	–
O=C(O)CC(C(=O)O)C(O)C(=O)O (racemic) [DL isocitric acid]	–	phenylhydrazine-based isocitrate lyase assay, 324 nm (AceAPa (ICLPa) [2]): could catalyze the cleavage of isocitrate into glyoxylate and succinate
O=C(O)CCC(=O)C(=O)O [α-ketoglutarate]	α-ketoglutarate, cis-aconitic acid, and D-glyceraldehyde 3-phosphate were all potent inhibitors of PrpBPa	–
O=C[C@H](O)COP(=O)(O)O [D-glyceraldehyde 3-phosphate]	α-ketoglutarate, cis-aconitic acid, and D-glyceraldehyde 3-phosphate were all potent inhibitors of PrpBPa	–
O=C(O)CC[N+](=O)[O-] [3-nitropropionic acid]	3-nitropropionic acid was also a potent inhibitor of PrpBPa	–
O=C(O)/C=C\C(=O)O [Maleic acid]	Maleic acid was a nonphysiological inhibitor	–
2-methylisocitrate lyase PrpB from Pseudomonas aeruginosa (PrpBPa) (enzyme, Pseudomonas aeruginosa PAO1, 2-methylisocitrate lyase PrpB, Pseudomonas aeruginosa PAO1, locus PA0796, PCR-amplified from PAO1 genomic DNA and cloned into pET-19m; 32.1 kDa; In the crystal structures the termini and the active site loop (residues 121-131) are not resolved; also called 2-MICL; PA0796; source: E. coli, purified (Ni-NTA; His6 tag removed with TEV protease); not shown: His6, N-terminal, cleaved) MSQTSLTPGQRFREAVATEHPLQVVGTINANHALLAKRAGFKAIYLSGGGVAAGSLGLPDLGISGLDDVLTDVRRITDVCDLPLLVDVDTGFGSSAFNVARTVKSMIKFGAAAMHIEDQVGAKRCGHRPNKEIVSQQEMVDRIKAAVDARSDDSFVIMARTDALAVEGLQAAIDRACACVEAGADMIFPEAMTELAMYKEFAAAVKVPVLANITEFGATPLFTTDELASADVSLVLYPLSAFRAMNKAAENVYTAIRRDGTQKNVIDTMQTRMELYDRIDYHSFEQKLDALFAQKKNA	–	stoichiometry N [3]: 4; Km (purified protein): 632 ± 158 µM; kcat (purified protein): 48.2 ± 4.2 s⁻¹
